In US10472356B2, “Bicyclic ketone sulfonamide compounds” (AMGEN INC., priority 2015, dated 2019) one finds IC50 data, which are given here for 21 compounds.

SMILES strings stand for the structures.

The target in assay [1] is T1, human Nav1.7 (Homo sapiens, UniProt Q15858).
T1 construct: expressed in transfected cells; host or cells: HEK293
Description: Nav 1.7 In Vitro PatchXpress (PX) Assay. It is filed as cell-based. Particulars: HEK 293 cells stably transfected with human Nav1.7; PatchXpress whole cell voltage clamp; partially inactivated state (holding potential yielding 20 to 50% inactivation); read-out: hNav1.7 PX IC50. A digest of the protocol: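 Whole-cell voltage clamp on HEK 293 cells stably expressing human Nav1.7 (automated patch), holding potential giving 20–50% inactivation; 20 ms pulses to −10 mV at 0.1 Hz. Single compound concentration applied 3 min, peak current inhibition measured; IC50 fitted from 3–5 cells per concentration.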

Assay [2] has as its target T1, human Nav1.7. Description: Nav 1.7 IWB In Vitro Assay (IonWorks Barracuda). It is filed as cell-based. Conditions: HEK293 cells stably transfected with human Nav 1.7; IonWorks Barracuda population patch-clamp; cells clamped to −20 mV for 4 minutes with compound; 26th pulse; read-out: hNav1.7 IWB IC50. A digest of the protocol: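 Population patch clamp of HEK293 cells stably expressing human Nav 1.7: 26 pulses to −20 mV (150 ms, 5 Hz) from −110 mV, then 4 min at −20 mV with compound, 3 s recovery at −110 mV and the train repeated. % inhibition of 26th-pulse peak current vs no compound; IC50 from concentration-response curves.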
For orientation: The patch-clamp technique gives a direct electrical read-out from membranes.

T1 sequence (Q15858 whole entry): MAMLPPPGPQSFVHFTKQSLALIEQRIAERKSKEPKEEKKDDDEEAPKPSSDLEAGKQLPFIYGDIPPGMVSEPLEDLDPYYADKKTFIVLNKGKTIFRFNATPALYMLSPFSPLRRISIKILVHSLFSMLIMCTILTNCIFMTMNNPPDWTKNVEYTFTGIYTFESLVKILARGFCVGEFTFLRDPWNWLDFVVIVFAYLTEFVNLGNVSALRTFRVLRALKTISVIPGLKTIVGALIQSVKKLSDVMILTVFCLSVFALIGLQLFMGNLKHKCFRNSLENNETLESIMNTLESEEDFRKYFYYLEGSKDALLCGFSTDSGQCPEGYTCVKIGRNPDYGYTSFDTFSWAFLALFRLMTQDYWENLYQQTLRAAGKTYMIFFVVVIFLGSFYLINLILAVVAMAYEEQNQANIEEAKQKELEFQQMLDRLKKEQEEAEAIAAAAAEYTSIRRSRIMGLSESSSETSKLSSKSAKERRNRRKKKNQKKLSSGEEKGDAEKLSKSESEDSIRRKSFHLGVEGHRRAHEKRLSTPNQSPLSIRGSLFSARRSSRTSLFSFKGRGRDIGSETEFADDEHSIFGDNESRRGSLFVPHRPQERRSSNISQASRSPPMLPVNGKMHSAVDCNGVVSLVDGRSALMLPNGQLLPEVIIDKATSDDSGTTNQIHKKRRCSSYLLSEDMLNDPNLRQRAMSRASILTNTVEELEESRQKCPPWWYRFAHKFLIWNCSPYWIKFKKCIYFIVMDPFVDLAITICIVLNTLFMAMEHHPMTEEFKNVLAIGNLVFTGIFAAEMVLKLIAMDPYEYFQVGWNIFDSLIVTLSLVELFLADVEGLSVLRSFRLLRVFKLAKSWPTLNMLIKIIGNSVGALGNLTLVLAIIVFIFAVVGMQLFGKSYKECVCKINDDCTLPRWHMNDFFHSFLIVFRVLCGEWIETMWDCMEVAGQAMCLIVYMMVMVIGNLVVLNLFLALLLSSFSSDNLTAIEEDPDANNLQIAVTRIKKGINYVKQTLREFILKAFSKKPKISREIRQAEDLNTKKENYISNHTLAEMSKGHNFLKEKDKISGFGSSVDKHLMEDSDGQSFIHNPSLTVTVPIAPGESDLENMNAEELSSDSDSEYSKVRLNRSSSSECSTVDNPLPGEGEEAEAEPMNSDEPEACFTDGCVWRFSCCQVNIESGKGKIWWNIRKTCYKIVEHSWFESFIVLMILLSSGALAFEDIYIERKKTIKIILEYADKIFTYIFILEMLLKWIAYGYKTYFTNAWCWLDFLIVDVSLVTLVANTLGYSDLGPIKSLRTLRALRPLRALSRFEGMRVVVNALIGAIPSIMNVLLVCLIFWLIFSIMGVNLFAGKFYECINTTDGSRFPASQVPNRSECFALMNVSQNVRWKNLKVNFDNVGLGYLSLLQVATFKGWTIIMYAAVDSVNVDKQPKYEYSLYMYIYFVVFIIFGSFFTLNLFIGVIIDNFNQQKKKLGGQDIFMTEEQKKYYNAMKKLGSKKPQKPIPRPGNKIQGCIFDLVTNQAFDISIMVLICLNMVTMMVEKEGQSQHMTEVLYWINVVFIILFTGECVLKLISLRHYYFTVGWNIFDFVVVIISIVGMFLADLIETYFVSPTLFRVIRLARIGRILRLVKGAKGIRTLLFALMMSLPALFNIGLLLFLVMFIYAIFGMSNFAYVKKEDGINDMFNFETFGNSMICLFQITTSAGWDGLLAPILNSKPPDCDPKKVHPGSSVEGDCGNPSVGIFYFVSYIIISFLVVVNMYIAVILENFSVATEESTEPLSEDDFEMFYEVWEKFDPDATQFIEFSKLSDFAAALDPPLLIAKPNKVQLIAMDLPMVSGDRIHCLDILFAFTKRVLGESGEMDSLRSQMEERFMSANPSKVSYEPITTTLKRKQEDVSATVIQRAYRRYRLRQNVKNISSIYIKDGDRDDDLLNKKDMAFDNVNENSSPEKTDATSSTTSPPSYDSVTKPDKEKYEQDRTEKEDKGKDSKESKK

Broadly, the IC50 is the point on the concentration scale where inhibition reaches its midpoint. For `COc1cc(-c2cccc(C(F)(F)F)c2)c(Cl)cc1-n1c2c(ccc1=O)CN(S(=O)(=O)Nc1cccnn1)CC2` (racemic) [Example 91-(Rac), (Rac)-1-(2-chloro-5-methoxy-3′-(trifluoromethyl)-[1,1′-biphenyl]-4-yl)-2-oxo-N-(pyridazin-3-yl)-1,2,7,8-tetrahydro-1,6-naphthyridine-6(5H)-sulfonamide], the IC50 at human Nav1.7 [1] stood at 29.9 nM; on human Nav1.7 [2] it was 11.2 nM.
For `COc1cc(-c2cccc(C(F)(F)F)c2)c(Cl)cc1-n1c2c(ccc1=O)CN(S(=O)(=O)Nc1ccon1)CC2` [Example 54, P-1-(2-chloro-5-methoxy-3′-(trifluoromethyl)-4-biphenylyl)-N-3-isoxazolyl-2-oxo-1,5,7,8-tetrahydro-1,6-naphthyridine-6(2H)-sulfonamide] the same measures were 6.9 nM and 0.5 nM.
For `COc1cc(-c2ccc(F)c(C)c2)c(F)cc1-n1c2c(ccc1=O)CN(S(=O)(=O)Nc1ncccn1)CC2` (single isomer, unassigned) [Example 29-M, M-1-(2,4′-difluoro-5-methoxy-3′-methyl-4-biphenylyl)-2-oxo-N-2-pyrimidinyl-1,5,7,8-tetrahydro-1,6-naphthyridine-6(2H)-sulfonamide] the same measures were over 30000 nM and over 2500 nM.
For `COc1cc(-c2cc(F)cc(Cl)c2)c(F)cc1-n1c2c(ccc1=O)CN(S(=O)(=O)Nc1cc(C)ncn1)CC2` (racemic) [4-(Rac), (Rac)-1-(3′-chloro-2,5′-difluoro-5-methoxy-4-biphenylyl)-N-(6-methyl-4-pyrimidinyl)-2-oxo-1,5,7,8-tetrahydro-1,6-naphthyridine-6(2H)-sulfonamide] the same measures were 386 nM and 45.9 nM.
Turning to `COc1cc(-c2cc(Cl)ccc2C)c(F)cc1-n1c2c(ccc1=O)CN(S(=O)(=O)Nc1ccon1)CC2` (single isomer, unassigned) [Example 9-M, M-1-(5′-chloro-2-fluoro-5-methoxy-2′-methyl-4-biphenylyl)-N-3-isoxazolyl-2-oxo-1,5,7,8-tetrahydro-1,6-naphthyridine-6(2H)-sulfonamide], the results for the IC50 at human Nav1.7 [1] and on human Nav1.7 [2] were 772 nM and 55 nM, respectively.
For `COc1cc(-c2cc(F)cc(C(F)(F)F)c2)c(F)cc1-n1c2c(ccc1=O)CN(S(=O)(=O)Nc1cccnn1)CC2` [Example 41, P-1-(2,3′-difluoro-5-methoxy-5′-(trifluoromethyl)-4-biphenylyl)-2-oxo-N-3-pyridazinyl-1,5,7,8-tetrahydro-1,6-naphthyridine-6(2H)-sulfonamide] the same measures were 33 nM and 1.8 nM.
For `COc1cc(-c2cc(F)cc(F)c2)c(F)cc1-n1c2c(ccc1=O)CN(S(=O)(=O)Nc1ncc(F)cn1)CC2` (racemic) [Example 10-(Rac), (Rac)-N-(5-fluoro-2-pyrimidinyl)-2-oxo-1-(2,3′,5′-trifluoro-5-methoxy-4-biphenylyl)-1,5,7,8-tetrahydro-1,6-naphthyridine-6(2H)-sulfonamide] the same measures were 2280 nM and 163 nM.
For `COc1cc(-c2ccc(C)c(F)c2)c(F)cc1-n1c2c(ccc1=O)CN(S(=O)(=O)Nc1ccon1)CC2` (single isomer, unassigned) [Example 21-M, M-1-(2,3′-difluoro-5-methoxy-4′-methyl-4-biphenylyl)-N-3-isoxazolyl-2-oxo-1,5,7,8-tetrahydro-1,6-naphthyridine-6(2H)-sulfonamide] the same measures were 4940 nM and 1550 nM.
Regarding `COc1cc(-c2cc(OC)c(-n3c4c(ccc3=O)CN(S(=O)(=O)Nc3ccon3)CC4)cc2Cl)ccc1Cl` [Example 52, P-1-(2,4′-dichloro-3′,5-dimethoxy-4-biphenylyl)-N-3-isoxazolyl-2-oxo-1,5,7,8-tetrahydro-1,6-naphthyridine-6(2H)-sulfonamide], the results for the IC50 on human Nav1.7 [1] and on human Nav1.7 [2] were 22.9 nM and 2.8 nM, respectively.
For `COc1cc(-c2cc(C(F)(F)F)cnc2OC)c(F)cc1-n1c2c(ccc1=O)CN(S(=O)(=O)Nc1cccnn1)CC2` [Example 64, P-1-(5-fluoro-2-methoxy-4-(2-methoxy-5-(trifluoromethyl)pyridin-3-yl)phenyl)-2-oxo-N-(pyridazin-3-yl)-1,2,7,8-tetrahydro-1,6-naphthyridine-6(5H)-sulfonamide] the same measures were 66.1 nM and 1.9 nM.
For `COc1cc(-c2cc(C)cc(OC(F)(F)F)c2)c(F)cc1-n1c2c(ccc1=O)CN(S(=O)(=O)Nc1cccnn1)CC2` [Example 78, P-1-(2-fluoro-5-methoxy-3′-methyl-5′-(trifluoromethoxy)-[1,1′-biphenyl]-4-yl)-2-oxo-N-(pyridazin-3-yl)-1,2,7,8-tetrahydro-1,6-naphthyridine-6(5H)-sulfonamide] the same measures were 44.5 nM and 5.3 nM.
`COc1cc(-c2ccc(F)c(F)c2)c(F)cc1-n1c2c(ccc1=O)CN(S(=O)(=O)Nc1ncccn1)CC2` (single isomer, unassigned) [Example 28-P, P-2-oxo-N-2-pyrimidinyl-1-(2,3′,4′-trifluoro-5-methoxy-4-biphenylyl)-1,5,7,8-tetrahydro-1,6-naphthyridine-6(2H)-sulfonamide]: the IC50 on human Nav1.7 [1] worked out at 499 nM; on human Nav1.7 [2] it was 80.5 nM.
As to `COc1cc(OC(F)(F)F)cc(-c2cc(OC)c(-n3c4c(ccc3=O)CN(S(=O)(=O)Nc3cccnn3)CC4)cc2F)c1` [Example 76, P-1-(2-fluoro-3′,5-dimethoxy-5′-(trifluoromethoxy)-[1,1′-biphenyl]-4-yl)-2-oxo-N-(pyridazin-3-yl)-1,2,7,8-tetrahydro-1,6-naphthyridine-6(5H)-sulfonamide], the IC50 at human Nav1.7 [1] stood at 38.8 nM; on human Nav1.7 [2], 4.2 nM.
For `COc1cc(-c2ccc(Cl)c(C)c2)c(F)cc1-n1c2c(ccc1=O)CN(S(=O)(=O)Nc1ncccn1)CC2` (racemic) [Example 30, (Rac)-1-(4′-chloro-2-fluoro-5-methoxy-3′-methyl-4-biphenylyl)-2-oxo-N-2-pyrimidinyl-1,5,7,8-tetrahydro-1,6-naphthyridine-6(2H)-sulfonamide] the same measures were 993 nM and 44.3 nM.
On to `COc1cc(-c2cc(F)cc(F)c2)c(F)cc1-n1c2c(ccc1=O)CN(S(=O)(=O)Nc1ncon1)CC2` (racemic) [Example 17-(Rac), (Rac)-N-1,2,4-oxadiazol-3-yl-2-oxo-1-(2,3′,5′-trifluoro-5-methoxy-4-biphenylyl)-1,5,7,8-tetrahydro-1,6-naphthyridine-6(2H)-sulfonamide], for which the IC50 came out at 1120 nM on human Nav1.7 [1] and 191 nM on human Nav1.7 [2].
For `COc1cc(-c2cc(F)cc(Cl)c2)ccc1-n1c2c(ccc1=O)CN(S(=O)(=O)Nc1cccnn1)CC2` (single isomer, unassigned) [Example 8-P, P-1-(3′-chloro-5′-fluoro-3-methoxy-4-biphenylyl)-2-oxo-N-3-pyridazinyl-1,5,7,8-tetrahydro-1,6-naphthyridine-6(2H)-sulfonamide] the same measures were 241 nM and 25.9 nM.
For `COc1cc(-c2cc(F)cc(F)c2)c(F)cc1-n1c2c(ccc1=O)CN(S(=O)(=O)Nc1ncc(F)cn1)CC2` (single isomer, unassigned) [Example 10-P, P-N-(5-fluoro-2-pyrimidinyl)-2-oxo-1-(2,3′,5′-trifluoro-5-methoxy-4-biphenylyl)-1,5,7,8-tetrahydro-1,6-naphthyridine-6(2H)-sulfonamide] the same measures were 644 nM and 52.9 nM.
For `COc1cc(-c2ccc(F)c(F)c2)c(F)cc1-n1c2c(ccc1=O)CN(S(=O)(=O)Nc1ncccn1)CC2` (racemic) [Example 28-(Rac), (Rac)-2-oxo-N-2-pyrimidinyl-1-(2,3′,4′-trifluoro-5-methoxy-4-biphenylyl)-1,5,7,8-tetrahydro-1,6-naphthyridine-6(2H)-sulfonamide] the same measures were 1680 nM and 199 nM.
Turning to `COc1ccc(C(F)(F)F)cc1-c1cc(OC)c(-n2c3c(ccc2=O)CN(S(=O)(=O)Nc2cccnn2)CC3)cc1F` [Example 74, P-1-(2-fluoro-2′,5-dimethoxy-5′-(trifluoromethyl)-[1,1′-biphenyl]-4-yl)-2-oxo-N-(pyridazin-3-yl)-1,2,7,8-tetrahydro-1,6-naphthyridine-6(5H)-sulfonamide], the IC50 at human Nav1.7 [1] came out at 29.4 nM; on human Nav1.7 [2] it was 7.7 nM.
For `COc1cc(-c2cc(F)cc(F)c2)c(F)cc1-n1c2c(ccc1=O)CN(S(=O)(=O)Nc1ccon1)[C@H](C)C2` [Example 3-D-M, M-(7R)-N-3-isoxazolyl-7-methyl-2-oxo-1-(2,3′,5′-trifluoro-5-methoxy-4-biphenylyl)-1,5,7,8-tetrahydro-1,6-naphthyridine-6(2H)-sulfonamide] the same measures were over 1000 nM and over 7500 nM.
Regarding `COc1cc(-c2cc(F)cc(F)c2)c(F)cc1-n1c2c(ccc1=O)CN(S(=O)(=O)Nc1ccncn1)CC2` [Example 88, P-2-oxo-N-(pyrimidin-4-yl)-1-(2,3′,5′-trifluoro-5-methoxy-[1,1′-biphenyl]-4-yl)-1,2,7,8-tetrahydro-1,6-naphthyridine-6(5H)-sulfonamide], the values for the IC50 at human Nav1.7 [1] and at human Nav1.7 [2] were 475 nM and 31.2 nM, respectively.
